Results reported in PubChem BioAssay (NCI).
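Protocol summary: plate cells (96-well), add compound at 5 concentrations, incubate 48 h, interpolate endpoints linearly. Definition used: TGI = concentration required for complete inhibition of growth.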 Where a SMILES comes first, the peptide text is derived from it. [ ]: non-standard residue; d: D form. The star is where a group is joined. Bn2Val = CC(C)[C@@H](C(=O)*)N(Cc1ccccc1)Cc1ccccc1; NH(4-F-benzyl) = Fc1ccc(CN*)cc1; NMeV = CN[C@H](C(=O)O)C(C)C; dNMeA = CN[C@H](C)C(=O)O

Tests used:
Assay in all cases: DTP human tumour cell line panel, 48 h
786-0 renal = test system: 786-0 renal
A498 renal = test system: A498 renal
A549 NSCLC = test system: A549 NSCLC
ACHN renal = test system: ACHN renal
BT-549 breast = test system: BT-549 breast
CAKI-1 renal = test system: CAKI-1 renal
CCRF-CEM leukemia = test system: CCRF-CEM leukemia
COLO 205 colon = test system: COLO 205 colon
DU-145 prostate = test system: DU-145 prostate
EKVX NSCLC = test system: EKVX NSCLC
HCC-2998 colon = test system: HCC-2998 colon
HCT-116 colon = test system: HCT-116 colon
HCT-15 colon = test system: HCT-15 colon
HL-60(TB) leukemia = test system: HL-60(TB) leukemia
HOP-62 NSCLC = test system: HOP-62 NSCLC
HOP-92 NSCLC = test system: HOP-92 NSCLC
HS 578T breast = test system: HS 578T breast
HT29 colon = test system: HT29 colon
IGROV1 ovarian = test system: IGROV1 ovarian
K-562 leukemia = test system: K-562 leukemia
KM12 colon = test system: KM12 colon
LOX IMVI melanoma = test system: LOX IMVI melanoma
M14 melanoma = test system: M14 melanoma
MALME-3M melanoma = test system: MALME-3M melanoma
MCF7 breast = test system: MCF7 breast
MDA-MB-231 breast = test system: MDA-MB-231 breast
MDA-MB-435 = test system: MDA-MB-435
MDA-N = test system: MDA-N
MOLT-4 leukemia = test system: MOLT-4 leukemia
NCI-H226 lung = test system: NCI-H226 lung
NCI-H23 lung = test system: NCI-H23 lung
NCI-H460 lung = test system: NCI-H460 lung
NCI-H522 lung = test system: NCI-H522 lung
NCI/ADR-RES ovarian = test system: NCI/ADR-RES ovarian
OVCAR-3 ovarian = test system: OVCAR-3 ovarian
OVCAR-4 ovarian = test system: OVCAR-4 ovarian
OVCAR-5 ovarian = test system: OVCAR-5 ovarian
OVCAR-8 ovarian = test system: OVCAR-8 ovarian
PC-3 prostate = test system: PC-3 prostate
RPMI-8226 leukemia = test system: RPMI-8226 leukemia
RXF 393 renal = test system: RXF 393 renal
SF-268 CNS = test system: SF-268 CNS
SF-295 CNS = test system: SF-295 CNS
SF-539 CNS = test system: SF-539 CNS
SK-MEL-2 melanoma = test system: SK-MEL-2 melanoma
SK-MEL-28 melanoma = test system: SK-MEL-28 melanoma
SK-MEL-5 melanoma = test system: SK-MEL-5 melanoma
SK-OV-3 ovarian = test system: SK-OV-3 ovarian
SN12C renal = test system: SN12C renal
SNB-19 CNS = test system: SNB-19 CNS
SNB-75 CNS = test system: SNB-75 CNS
SR leukemia = test system: SR leukemia
SW-620 colon = test system: SW-620 colon
T-47D breast = test system: T-47D breast
TK-10 renal = test system: TK-10 renal
U251 CNS = test system: U251 CNS
UACC-257 melanoma = test system: UACC-257 melanoma
UACC-62 melanoma = test system: UACC-62 melanoma
UO-31 renal = test system: UO-31 renal

With `CC(C)[C@H](NC(=O)[C@H](C(C)C)N(Cc1ccccc1)Cc1ccccc1)C(=O)N(C)[C@H](C(=O)N1CCC[C@H]1C(=O)N(C)[C@H](C)C(=O)NCc1ccc(F)cc1)C(C)C` (Bn2Val-V[NMeV]P[dNMeA]-{NH(4-F-benzyl)}) the TGI (786-0 renal) was 36.8 µM, the TGI (A498 renal) was 6.71 µM and the TGI (A549 NSCLC) was > 25.2 µM. The TGI (ACHN renal) was 20.6 µM, the TGI (BT-549 breast) was 19.1 µM and the TGI (CAKI-1 renal) was > 63.1 µM. The TGI (CCRF-CEM leukemia) was > 100 µM, the TGI (COLO 205 colon) was 3.28 µM and the TGI (DU-145 prostate) was > 100 µM. For the same molecule, the TGI (EKVX NSCLC) was 18.4 µM, the TGI (HCC-2998 colon) was 12.8 µM and the TGI (HCT-116 colon) was 8.82 µM. The TGI (HCT-15 colon) was > 80.9 µM, the TGI (HL-60(TB) leukemia) was 5.52 µM and the TGI (HOP-62 NSCLC) was 39.4 µM. For the same molecule, the TGI (HOP-92 NSCLC) was 10.3 µM, the TGI (HS 578T breast) was 24.7 µM and the TGI (HT29 colon) was 4.18 µM. For the same molecule, the TGI (IGROV1 ovarian) was 9.7 µM, the TGI (K-562 leukemia) was > 100 µM and the TGI (KM12 colon) was > 100 µM. For the same molecule, the TGI (LOX IMVI melanoma) was 3.52 µM, the TGI (M14 melanoma) was > 20.3 µM and the TGI (MALME-3M melanoma) was 9.23 µM. For the same molecule, the TGI (MCF7 breast) was 7.32 µM, the TGI (MDA-MB-231 breast) was 11.2 µM and the TGI (MDA-MB-435) was > 31.9 µM. For the same molecule, the TGI (MDA-N) was 27.9 µM, the TGI (MOLT-4 leukemia) was > 20.8 µM and the TGI (NCI-H226 lung) was 6.23 µM. The TGI (NCI-H23 lung) was 32.5 µM, the TGI (NCI-H460 lung) was > 38.7 µM and the TGI (NCI-H522 lung) was 7.61 µM. For the same molecule, the TGI (NCI/ADR-RES ovarian) was > 100 µM, the TGI (OVCAR-3 ovarian) was 9.92 µM and the TGI (OVCAR-4 ovarian) was > 47.4 µM. The TGI (OVCAR-5 ovarian) was 15.4 µM, the TGI (OVCAR-8 ovarian) was > 51.5 µM and the TGI (PC-3 prostate) was > 25.6 µM. The TGI (RPMI-8226 leukemia) was > 100 µM, the TGI (RXF 393 renal) was 7.9 µM and the TGI (SF-268 CNS) was 10 µM. For the same molecule, the TGI (SF-295 CNS) was 13.6 µM, the TGI (SF-539 CNS) was 7.99 µM and the TGI (SK-MEL-2 melanoma) was 4.03 µM. For the same molecule, the TGI (SK-MEL-28 melanoma) was > 61.7 µM, the TGI (SK-MEL-5 melanoma) was 4.7 µM and the TGI (SK-OV-3 ovarian) was > 100 µM. For the same molecule, the TGI (SN12C renal) was 8.76 µM, the TGI (SNB-19 CNS) was > 65.6 µM and the TGI (SNB-75 CNS) was > 37.5 µM. For the same molecule, the TGI (SR leukemia) was 4.65 µM, the TGI (SW-620 colon) was > 100 µM and the TGI (T-47D breast) was > 83.9 µM. The TGI (TK-10 renal) was > 61.2 µM, the TGI (U251 CNS) was > 25.6 µM and the TGI (UACC-257 melanoma) was > 47.4 µM. For the same molecule, the TGI (UACC-62 melanoma) was 9.66 µM and the TGI (UO-31 renal) was 6.42 µM.
